Test results from patent publication US8927063B2, “Compositions for the treatment of timber and other wood substrates” (TimTechChem International Limited, priority 2008, dated 2015).

Experiments:
[1] = Example 3: solubility and formulation stability in ester solvents
Description: Further formulation tests were carried out to ascertain if the fungicide IPBC (iodo propyl butyl carbamate, CAS No 55406-53-6) was soluble in ester compounds of formula (I).

[2] = Example 2: solvent evaporation rate from treated wood pieces (daily re-weighing); settings: 17-22 °C, no external airflow
Description: The wood pieces were placed on plastic bearers allowing good access of air to all surfaces and situated in a dedicated room with no external airflow. Air temperatures in the room were mainly in the range 17-22° C.
The wood pieces were re-weighed daily to determine weight loss rates for the various solvents.

## N#Cc1c(Cl)c(Cl)c(Cl)c(C#N)c1Cl [chlorothalonil]
[1]; in butyl ethanoate
  solubility: less than 1%
[1]; in propyl ethanoate
  solubility: less than 1%

## CCOC(C)=O [ethyl ethanoate]
[2]; After 24 h
  % Solvent Remaining in Wood: 3.8%
[2]; After 48 h
  % Solvent Remaining in Wood: 0%
[2]; After 72 h
  % Solvent Remaining in Wood: 0%

## CCCCOC(C)=O [n-butyl ethanoate]
[2]; After 24 h
  % Solvent Remaining in Wood: 6.9%
[2]; After 48 h
  % Solvent Remaining in Wood: 3.1%
[2]; After 72 h
  % Solvent Remaining in Wood: 0.8%

## CC(C)(C)C(O)(CCc1ccc(Cl)cc1)Cn1cncn1 (stereo not drawn) [tebuconazole]
[1]
  solubilisation in the esters of the invention: good solubilisation
